Columns and labels:
h KV1.5 = target: T1, h KV1.5 (Homo sapiens, UniProt P22460); assay: TEVC recordings in X. laevis oocytes, KV1.5; format: cell-based; details: for Ionic current block IKur: from inhibition curves, used for simulation
T1 construct: h KV1.5 (KCNA5, NM_002234); expressed in transfected cells; host or cells: Xenopus laevis oocytes injected with cRNA
Protocol: The two-electrode voltage clamp (TEVC) technique was used for electrophysiology tests. Channels were expressed in Xenopus laevis oocytes. The initial channel-blocking potential was assessed at 100 μM for the 10 synthesized compounds on TASK-1 and KV1.5 channels.
To obtain X. laevis oocytes, the frogs were anesthetized with 2 g/L of tricaine methanesulfonate, and the ovarian lobes were mechanically separated with forceps. The oocytes were incubated for 120 min in an OR2 solution containing in mM: NaCl 82.5, KCl 2, MgCl2 1, HEPES 5 (pH 7.5) supplemented with 2 mg/ml of collagenase II (Sigma) to remove residual connective tissue and obtain individual oocytes. Subsequently, the oocytes were washed with a ND96 solution containing in mM: NaCl 96, KCl 2, CaCl2 1.8, MgCl2 1, HEPES 5 (pH 7.5, adjusted with NaOH) and stored at 18 °C in ND96 solution supplemented with 1 ml of gentamicin (50 mg/L), sodium pyruvate (275 mg/L) and (90 mg/L) theophylline (inhibits further oocyte maturation) before and after RNA injection.
In order to overexpress the channel in the oocyte, each of the channels to be measured was subcloned (complementary DNA (cDNA); human TASK-1 (KCNK3, NM_002246), h KV1.5 (KCNA5, NM_002234), h NaV1.5 (hH1, M77235), TASK-4/TALK-2 (KCNK17, NM_AF358910), TREK-1 (KCNK2, AF004711) and Kir2.1 (KCNJ2, NM_017296) into pSGEM, pBF1 or pSP64 expression vector, and the cDNA was linearized with NheI or MluI. Complementary RNA (cRNA) was synthesized with the mMESSAGE mMACHINE-Kit (Ambion). The quality of the cRNA was tested on an agarose gel by electrophoresis. cRNA was quantified using a UV-Vis spectrophotometer (NanoDrop 2000). Subsequently, the channel was transfected in the oocytes in stages V and VI, for which […] (TASK-1, KV1.5 or TREK-1), 10 ng (NaV1.5 or TASK-4) o 2.5 ng (Kir2.1) per oocyte of cRNA was injected with a NanojectII microinjector (Drummond Scientific). The oocytes were stored in 24-well plates for 24 to 48 h at 18 °C. After this time, the overexpression of each channel was monitored through electrophysiology.
Two-electrode voltage clamp measurements were performed 24 or 48 h after cRNA injection at room temperature (20–22 °C) in ND96 recording solution with a TurboTEC-10CD (npi) amplifier and a Digidata 1550B (for TASK-1 and KV1.5) and 1440A (for NaV1.5) A/D converter from Axon Instruments. Micropipettes were fabricated from GB 150 TF-8P borosilicate glass capillaries (Science Products) elongated in a DMZ-Universal Puller (Zeitz, Germany). […] ND96 was used as bath solution. Data acquisition was performed using Clampex 10 software (Axon Instruments), and data were analyzed with ClampFit 10 (Axon Instruments) and Origin 7 (Origin Lab Corporation).
For compound inhibition testing, from a holding potential of −80 mV a first test pulse to 0 mV of 1 s duration was followed by a repolarization step at −80 mV for 1 s, directly followed by another 1 s test pulse at +40 mV. The sweep time interval was 10 s for KV1.5 and TASK-1 channels. For the NaV1.5 channel, the block was analyzed with voltage steps from a holding potential of −80 mV. A first depolarizing pulse to −30 mV of 50 ms duration was applied, followed by a 5 ms step to −80 mV. The sweep time interval was 5 s. The compounds were applied at different concentrations to determine the half-maximal inhibitory concentration (IC50), using a fit to the Hill equation.
To test for a putative voltage-dependence of the block by the compound 6f in KV1.5, a 1.5 s voltage step protocol from −80 to +80 mV with +20 mV increments was used. The holding potential was −80 mV and the sweep time interval was 10 s. Currents were analyzed at the end of the voltage pulse. For TASK-1, voltage-dependence of block was probed using a high-potassium solution (KD96) containing in mM: KCl 96, NaCl 2, CaCl2 1.8, MgCl2 1, HEPES 5, (pH 7.5, adjusted with KOH). From a holding potential of 0 mV, voltage was stepped from −80 mV to +80 mV for 1.5 s in +20 mV steps every 10 s. […]

human erythrocytes = assay: Hemolysis assay; format: cell-based; details: 0.2–400 μM, 2 hours, 37 °C
Protocol: To evaluate cytotoxicity, the hemolysis of the compounds with the best simultaneous blocking activity on the channels (6e, 6f, 7a, 7b and 7c) was considered, modifying the protocol of Chen 2018 ([112]). Thus, non-heparinized human blood was collected. Erythrocytes were washed three times in 1× PBS (phosphate-buffered saline: NaCl, 8 g/L; KCl, 0.2 g/L; Na2HPO4, 1.44 g/L; and KH2PO4, 0.24 g/L; pH 7.4) and then used to prepare a 3% red blood cell (RBC) suspension. The assay was performed in a 96-well polypropylene microplate.
The compounds were prepared from 200 mM stock solutions in DMSO. Subsequently, 1:2 serial dilutions were made in 1× PBS, with final concentrations from 400 to 0.2 μM to a final volume of 200 μl per well. The microplate was incubated for 2 h at 37 °C and centrifuged at 3400 rpm for 5 min. Finally, 100 μl of the supernatant was transferred and measured in a 96-well plate. Hemoglobin release was monitored by photometric analysis of the supernatant at 540 nm using an Epoch Microplate Spectrophotometer (BioTek Instruments, Inc. Winooski, Vermont 05404-0998).
A 3% RBC suspension treated with Tween 20 was used to obtain total lysis as a positive control. Other authors who performed hemolysis assays have also considered this and other detergents, such as Triton X-100 and Sodium Dodecyl Sulfate (SDS) as positive controls ([113], [114], [115], [116]). The negative control was a suspension of red blood cells with PBS. Each experiment was performed in triplicate at all concentrations used. The percentage of hemolysis was calculated with the following (Equation 1), where Ad: absorbance of the dilution, A0: absorbance of the blank (RBC suspension with PBS), and At: total absorbance (positive control).(1) %hemolysis=Ad−A0/At−A0x100

T1 sequence (P22460 whole entry): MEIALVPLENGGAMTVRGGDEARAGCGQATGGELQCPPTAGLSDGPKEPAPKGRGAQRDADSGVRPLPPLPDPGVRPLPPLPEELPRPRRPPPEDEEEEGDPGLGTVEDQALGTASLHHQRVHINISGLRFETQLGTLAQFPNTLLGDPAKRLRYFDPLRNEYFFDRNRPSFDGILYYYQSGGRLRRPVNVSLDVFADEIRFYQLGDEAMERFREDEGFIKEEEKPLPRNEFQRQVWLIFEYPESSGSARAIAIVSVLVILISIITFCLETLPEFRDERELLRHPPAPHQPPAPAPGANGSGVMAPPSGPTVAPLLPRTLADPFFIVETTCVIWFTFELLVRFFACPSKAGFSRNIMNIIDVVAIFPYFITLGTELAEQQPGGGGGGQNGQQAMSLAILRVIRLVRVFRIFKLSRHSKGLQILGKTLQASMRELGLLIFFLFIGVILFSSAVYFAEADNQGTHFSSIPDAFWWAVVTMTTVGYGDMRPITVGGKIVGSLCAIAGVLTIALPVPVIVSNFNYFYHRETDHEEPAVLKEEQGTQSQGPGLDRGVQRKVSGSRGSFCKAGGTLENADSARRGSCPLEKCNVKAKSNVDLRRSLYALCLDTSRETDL

- Ionic current block IKur (h KV1.5; 1 μM): 0%
- Ionic current block IKur (h KV1.5; 10 μM): 2.5%
- inhibition at 100 µM (h KV1.5; 100 μM, +40 mV, oocytes, mean ± SD): 55.8 ± 11.5%
- Ionic current block IKur (h KV1.5; 100 μM): 50%
- IC50 (h KV1.5; X. laevis oocytes, TEVC, block at +40 mV): 81.5 µM
- Voltage-dependence of block of KV1.5 (h KV1.5; oocytes, 100 μM): no significant voltage-dependence
Compound: CCCCN(CCCC)CC(=O)Nc1ccc(OC)cc1OC [Compound 6f, 2-(dibutylamine)-N-(2,4-dimethoxiphenyl)acetamide]
- Hemolytic effect (human erythrocytes): no hemolytic effect
